According to patent publication US12559492B2, “BRAF degraders” (C4 Therapeutics, Inc., priority 2020, dated 2026):
Where a name gives a salt, the structure may show the parent alone.

Target: BRAF^V600E protein (Homo sapiens, UniProt P15056, V600E)
Assay: HiBiT cellular BRAF V600E degradation assay
Assay type: cell-based
Details: 24 h incubation; for DC50: A375.10 cells (HiBiT tag knocked in at N-terminal of BRAF V600E), concentration at which 50% of total cellular BRAF V600E is degraded; for Emax: read-out: HiBit 24 h Emax
[1] = A375.10 cells, Emax = amount of residual protein remaining in the cell after compound treatment

Chain of BRAF^V600E protein (P15056 whole entry V600E): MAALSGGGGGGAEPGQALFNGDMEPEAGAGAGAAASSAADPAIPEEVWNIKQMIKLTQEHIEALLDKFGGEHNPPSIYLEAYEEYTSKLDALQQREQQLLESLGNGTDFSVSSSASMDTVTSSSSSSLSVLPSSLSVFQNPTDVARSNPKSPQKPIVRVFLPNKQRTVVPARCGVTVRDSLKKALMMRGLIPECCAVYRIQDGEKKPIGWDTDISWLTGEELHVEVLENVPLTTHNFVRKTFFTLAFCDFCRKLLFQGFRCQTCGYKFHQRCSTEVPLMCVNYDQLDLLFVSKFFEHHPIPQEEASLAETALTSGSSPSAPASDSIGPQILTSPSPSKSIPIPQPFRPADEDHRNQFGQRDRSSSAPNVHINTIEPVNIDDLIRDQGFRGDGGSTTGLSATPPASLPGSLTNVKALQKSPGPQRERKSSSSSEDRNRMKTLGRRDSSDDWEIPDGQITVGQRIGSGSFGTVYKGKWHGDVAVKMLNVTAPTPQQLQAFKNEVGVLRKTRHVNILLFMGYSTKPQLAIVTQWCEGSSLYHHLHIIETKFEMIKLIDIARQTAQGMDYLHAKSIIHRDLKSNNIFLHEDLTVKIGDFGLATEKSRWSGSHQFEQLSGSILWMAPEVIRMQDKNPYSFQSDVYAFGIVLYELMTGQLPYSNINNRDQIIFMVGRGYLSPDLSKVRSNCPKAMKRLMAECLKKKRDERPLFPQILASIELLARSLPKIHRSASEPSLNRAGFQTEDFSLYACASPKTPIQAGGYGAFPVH

SMILES	DC50 [nM]	Emax [1] [%]	HiBit 24 h Emax [1] [%]
CCN(C)S(=O)(=O)Nc1ccc(F)c(C(=O)c2c[nH]c3ncc(C#Cc4ccc(C(=O)NCCN5CCC(c6ccc(NC7CCC(=O)NC7=O)cc6)CC5)cc4)cc23)c1F (stereo not shown) [Example A86, N-[2-[4-[4-[(2,6-Dioxopiperidin-3-yl)amino]phenyl]piperidin-1-yl]ethyl]-4-[2-[3-[3-[[ethyl(methyl)sulfamoyl]amino]-2,6-difluorobenzoyl]-1H-pyrrolo[2,3-b]pyridin-5-yl]ethynyl]benzamide]	32	23	
O=C1CCN(c2cccc(C3CCN(CC(=O)N4CCN(c5ccc(-c6cnc7[nH]cc(C(=O)c8c(F)ccc(NS(=O)(=O)N9CCCC9)c8F)c7c6)cc5)CC4)CC3)c2)C(=O)N1 [Example A88, N-[3-[5-[4-[4-[2-[4-[3-(2,4-Dioxo-1,3-diazinan-1-yl)phenyl]piperidin-1-yl]acetyl]piperazin-1-yl]phenyl]-1H-pyrrolo[2,3-b]pyridine-3-carbonyl]-2,4-difluorophenyl]pyrrolidine-1-sulfonamide]	52	26	
O=C1CCC(Nc2ccc(C3CCN(CCCC(=O)N4CC(c5ccc(-c6cnc7[nH]cc(C(=O)c8c(F)ccc(NS(=O)(=O)N9CCCC9)c8F)c7c6)cc5)C4)CC3)cc2)C(=O)N1 (stereo not shown) [Example A89, N-[3-[5-[4-[1-[4-[4-[4-[(2,6-dioxopiperidin-3-yl)amino]phenyl]piperidin-1-yl]butanoyl]azetidin-3-yl]phenyl]-1H-pyrrolo[2,3-b]pyridine-3-carbonyl]-2,4-difluorophenyl]pyrrolidine-1-sulfonamide]	73	12	
CCN(C)S(=O)(=O)Nc1ccc(F)c(C(=O)c2c[nH]c3ncc(-c4cnc(N5CCC(N(C)CC(=O)N6CCC(c7ccc(NC8CCC(=O)NC8=O)cn7)CC6)CC5)nc4)cc23)c1F (stereo not shown) [Example A90, 5-[2-[4-[[2-[4-[5-[(2,6-Dioxopiperidin-3-yl)amino]pyridin-2-yl]piperidin-1-yl]-2-oxoethyl]-methylamino]piperidin-1-yl]pyrimidin-5-yl]-3-[3-[[ethyl(methyl)sulfamoyl]amino]-2,6-difluorobenzoyl]-1H-pyrrolo[2,3-b]pyridine;formic acid]	31	20	
CCN(C)S(=O)(=O)Nc1ccc(F)c(C(=O)c2c[nH]c3ncc(-c4cnc(N5CCC(NCC(=O)N6CCC(c7ccc(NC8CCC(=O)NC8=O)cn7)CC6)CC5)nc4)cc23)c1F (stereo not shown) [Example A93, 5-[2-[4-[[2-[4-[5-[(2,6-Dioxopiperidin-3-yl)amino]pyridin-2-yl]piperidin-1-yl]-2-oxoethyl]amino]piperidin-1-yl]pyrimidin-5-yl]-3-[3-[[ethyl(methyl)sulfamoyl]amino]-2,6-difluorobenzoyl]-1H-pyrrolo[2,3-b]pyridine;formic acid]	16	14	
CCN(C)S(=O)(=O)Nc1ccc(F)c(C(=O)c2c[nH]c3ncc(-c4ccc(N5CCC(NCC(=O)N6CCC(c7ccc(NC8CCC(=O)NC8=O)cn7)CC6)CC5)cc4)cc23)c1F (stereo not shown) [Example A96, 5-[4-[4-[[2-[4-[5-[(2,6-Dioxopiperidin-3-yl)amino]pyridin-2-yl]piperidin-1-yl]-2-oxoethyl]amino]piperidin-1-yl]phenyl]-3-[3-[[ethyl(methyl)sulfamoyl]amino]-2,6-difluorobenzoyl]-1H-pyrrolo[2,3-b]pyridine; hydrochloride]	18	9	
CCN(C)S(=O)(=O)Nc1ccc(F)c(C(=O)c2c[nH]c3ncc(-c4ccc(N5CCC(NCC(=O)N6CCC(c7ccc(OC8CCC(=O)NC8=O)cn7)CC6)CC5)cc4)cc23)c1F (stereo not shown) [Example A97, 5-[4-[4-[[2-[4-[5-(2,6-Dioxopiperidin-3-yl)oxypyridin-2-yl]piperidin-1-yl]-2-oxoethyl]amino]piperidin-1-yl]phenyl]-3-[3-[[ethyl(methyl)sulfamoyl]amino]-2,6-difluorobenzoyl]-1H-pyrrolo[2,3-b]pyridine;hydrochloride]	84	12	
CCN(C)S(=O)(=O)Nc1ccc(F)c(C(=O)c2c[nH]c3ncc(-c4ccc(N5CCC(NCC(=O)N6CCC(c7ccc(OC8CCC(=O)NC8=O)cc7)CC6)CC5)cc4)cc23)c1F (stereo not shown) [Example A99, 5-[4-[4-[[2-[4-[4-(2,6-Dioxopiperidin-3-yl)oxyphenyl]piperidin-1-yl]-2-oxoethyl]amino]piperidin-1-yl]phenyl]-3-[3-[[ethyl(methyl)sulfamoyl]amino]-2,6-difluorobenzoyl]-1H-pyrrolo[2,3-b]pyridine;hydrochloride]	32	9	

Now from value to compound:

DC50 [nM]	Emax [1] [%]	HiBit 24 h Emax [1] [%]	SMILES
7.65	9.6		CCN(C)S(=O)(=O)Nc1ccc(F)c(C(=O)c2c[nH]c3ncc(-c4ccc(N5CCN(C(=O)CN6CCC(c7ccc(C8CCC(=O)NC8=O)cc7)CC6)CC5)nc4)cc23)c1F (stereo not shown) [Example A82, 5-[6-[4-[2-[4-[4-(2,6-Dioxopiperidin-3-yl)phenyl]piperidin-1-yl]acetyl]piperazin-1-yl]pyridin-3-yl]-3-[3-[[ethyl(methyl)sulfamoyl]amino]-2,6-difluorobenzoyl]-1H-pyrrolo[2,3-b]pyridine]
6.97	8.89		CCN(C)S(=O)(=O)Nc1ccc(F)c(C(=O)c2c[nH]c3ncc(C#Cc4ccc(C(=O)N5CCC(N6CCC(c7ccc(NC8CCC(=O)NC8=O)cc7)CC6)CC5)cc4)cc23)c1F (stereo not shown) [Example A83, 5-[2-[4-[4-[4-[4-[(2,6-Dioxopiperidin-3-yl)amino]phenyl]piperidin-1-yl]piperidine-1-carbonyl]phenyl]ethynyl]-3-[3-[[ethyl(methyl)sulfamoyl]amino]-2,6-difluorobenzoyl]-1H-pyrrolo[2,3-b]pyridine]
16	11		O=C1CCC(c2ccc(C3CCN(CC(=O)N4CCN(c5ccc(-c6cnc7[nH]cc(C(=O)c8c(F)ccc(NS(=O)(=O)N9CCCC9)c8F)c7c6)cc5)CC4)CC3)cc2)C(=O)N1 (stereo not shown) [Example A85, N-[3-[5-[4-[4-[2-[4-[4-(2,6-Dioxopiperidin-3-yl)phenyl]piperidin-1-yl]acetyl]piperazin-1-yl]phenyl]-1H-pyrrolo[2,3-b]pyridine-3-carbonyl]-2,4-difluorophenyl]pyrrolidine-1-sulfonamide]
6	7		CCN(C)S(=O)(=O)Nc1ccc(F)c(C(=O)c2c[nH]c3ncc(-c4cnc(N5CCN(C(=O)CN6CCC(c7ccc(NC89CC(C8)C(=O)NC9=O)cc7)CC6)CC5)nc4)cc23)c1F [Example A87, 5-[2-[4-[2-[4-[4-[(2,4-Dioxo-3-azabicyclo[3.1.1]heptan-1-yl)amino]phenyl]piperidin-1-yl]acetyl]piperazin-1-yl]pyrimidin-5-yl]-3-[3-[[ethyl(methyl)sulfamoyl]amino]2,6-difluorobenzoyl]-1H-pyrrolo[2,3-b]pyridine; formic acid]
5	8		CCN(C)S(=O)(=O)Nc1ccc(F)c(C(=O)c2c[nH]c3ncc(-c4cnc(N5CCN(C(=O)CN6CCC(c7ccc(N8CCC(=O)NC8=O)cc7)CC6)CC5)nc4)cc23)c1F [Example A91, 5-[2-[4-[2-[4-[4-(2,4-Dioxo-1,3-diazinan-1-yl)phenyl]piperidin-1-yl]acetyl]piperazin-1-yl]pyrimidin-5-yl]-3-[3-[[ethyl(methyl)sulfamoyl]amino]-2,6-difluorobenzoyl]-1H-pyrrolo[2,3-b]pyridine]
8	7		CCN(C)S(=O)(=O)Nc1ccc(F)c(C(=O)c2c[nH]c3ncc(-c4cnc(N5CCC(N(C)C(=O)CN6CCC(c7ccc(NC8CCC(=O)NC8=O)cn7)CC6)CC5)nc4)cc23)c1F (stereo not shown) [Example A92, 2-[4-[5-[(2,6-Dioxopiperidin-3-yl)amino]pyridin-2-yl]piperidin-1-yl]-N-[1-[5-[3-[3-[[ethyl(methyl)sulfamoyl]amino]-2,6-difluorobenzoyl]-1H-pyrrolo[2,3-b]pyridin-5-yl]pyrimidin-2-yl]piperidin-4-yl]-N-methylacetamide; formic acid]
13		8	CCN(C)S(=O)(=O)Nc1ccc(F)c(C(=O)c2c[nH]c3ncc(-c4cnc(N5CCC(C(=O)N6CCC(c7ccc(NC8CCC(=O)NC8=O)cc7)CC6)CC5)nc4)cc23)c1F (stereo not shown) [Example A94, 5-[2-[4-[4-[4-[(2,6-Dioxopiperidin-3-yl)amino]phenyl]piperidine-1-carbonyl]piperidin-1-yl]pyrimidin-5-yl]-3-[3-[[ethyl(methyl)sulfamoyl]amino]-2,6-difluorobenzoyl]-1H-pyrrolo[2,3-b]pyridine]
11	7		CCN(C)S(=O)(=O)Nc1ccc(F)c(C(=O)c2c[nH]c3ncc(-c4ccc(N5CCC(N(C)C(=O)CN6CCC(c7ccc(NC8CCC(=O)NC8=O)cn7)CC6)CC5)nc4)cc23)c1F (stereo not shown) [Example A95, 2-[4-[5-[(2,6-Dioxopiperidin-3-yl)amino]pyridin-2-yl]piperidin-1-yl]-N-[1-[5-[3-[3-[[ethyl(methyl)sulfamoyl]amino]-2,6-difluorobenzoyl]-1H-pyrrolo[2,3-b]pyridin-5-yl]pyridin-2-yl]piperidin-4-yl]-N-methylacetamide;hydrochloride]
12	12		CCN(C)S(=O)(=O)Nc1ccc(F)c(C(=O)c2c[nH]c3ncc(-c4ccc(N5CCC(NCC(=O)N6CCC(c7ccc(NC8CCC(=O)NC8=O)cc7)CC6)CC5)cc4)cc23)c1F (stereo not shown) [Example A98, 5-[4-[4-[[2-[4-[4-[(2,6-Dioxopiperidin-3-yl)amino]phenyl]piperidin-1-yl]-2-oxoethyl]amino]piperidin-1-yl]phenyl]-3-[3-[[ethyl(methyl)sulfamoyl]amino]-2,6-difluorobenzoyl]-1H-pyrrolo[2,3-b]pyridine; hydrochloride]
